Blank lines part the entries; values can stand above or below the compound they belong to.
Key:
[1] = test system: Spodoptera littoralis; experiment: Spodoptera littoralis (Egyptian cotton leaf worm) cotton leaf disc spray test; type: in vivo; details: foliar, 72 h, application rate 200 ppm, L1 larvae, 3 days after infestation, vs untreated, read-out: control (at least one of mortality, anti-feedant effect, growth inhibition)
Procedure: Spodoptera littoralis (Egyptian Cotton Leaf Worm)
Cotton leaf discs were placed on agar in 24-well microtiter plates and sprayed with aqueous test solutions prepared from 10′000 ppm DMSO stock solutions. After drying the leaf discs were infested with five L1 larvae. The samples were assessed for mortality, anti-feedant effect, and growth inhibition in comparison to untreated samples 3 days after infestation. Control of Spodoptera littoralis by a test sample is when at least one of mortality, anti-feedant effect, and growth inhibition is higher than the untreated sample.

[2] = test system: Plutella xylostella; experiment: Plutella xylostella (diamond back moth) artificial diet test; type: in vivo; details: 120 h, application rate 200 ppm, L2 larvae, 5 days after infestation, vs untreated, read-out: effect in at least one of the two categories (mortality or growth inhibition)
Procedure: Plutella xylostella (Diamond Back Moth):
24-well microtiter plates with artificial diet were treated with aqueous test solutions prepared from 10′000 ppm DMSO stock solutions by pipetting. After drying, the plates were infested with L2 larvae (10 to 15 per well). The samples were assessed for mortality and growth inhibition in comparison to untreated samples 5 days after infestation. The following compounds gave an effect of at least 80% in at least one of the two categories (mortality or growth inhibition) at an application rate of 200 ppm: 1, 2, 3, 4, 7, 8, 9, 10, 11, 12, 13, 14, 15, 16, 17, 18, 19, 20, 21, 22, 23, 24, 26, 27, 28 and 29.

[3] = test system: Diabrotica balteata; experiment: Diabrotica balteata (corn root worm) maize sprout spray test; type: in vivo; details: 96 h, application rate 200 ppm, L2 larvae, 4 days after infestation, vs untreated, read-out: effect in at least one of the two categories (mortality or growth inhibition)
Procedure: Diabrotica balteata, (Corn Root Worm)
Maize sprouts, placed on an agar layer in 24-well microtiter plates were treated with aqueous test solutions prepared from 10′000 ppm DMSO stock solutions by spraying. After drying, the plates were infested with L2 larvae (6 to 10 per well). The samples were assessed for mortality and growth inhibition in comparison to untreated samples 4 days after infestation. The following compounds gave an effect of at least 80% in at least one of the two categories (mortality or growth inhibition) at an application rate of 200 ppm: 1, 2, 3, 4, 7, 8, 9, 11, 12, 13, 14, 15, 16, 17, 18, 19, 20, 21, 27, 28 and 29.

[4] = test system: Thrips tabaci; experiment: Thrips tabaci (onion thrips) sunflower leaf disc spray test; type: in vivo; details: foliar, 144 h, application rate 200 ppm, population of mixed ages, 6 days after infestation
Procedure: Thrips tabaci (Onion Thrips):
(§1) Sunflower leaf discs were placed on agar in 24-well microtiter plates and sprayed with aqueous test solutions prepared from 10′000 ppm DMSO stock solutions. After drying the leaf discs were infested with a Thrips population of mixed ages. The samples were assessed for mortality 6 days after infestation.

[5] = test system: Tetranychus urticae; experiment: Tetranychus urticae (two-spotted spider mite) bean leaf disc spray test; type: in vivo; details: foliar, 192 h, application rate 200 ppm, 8 days after infestation, read-out: mortality on mixed population (mobile stages)
Procedure: Tetranychus urticae (Two-Spotted Spider Mite):
as §1, with “Bean” for “Sunflower”, “discs” for “discs were placed”, “were” for “and”, “mite” for “Thrips”, “on mixed population (mobile stages) 8” for “6”

[6] = test system: Euschistus heros; experiment: Euschistus heros (neotropical brown stink bug) soybean leaf spray test; type: in vivo; details: 120 h, application rate 200 ppm, N2 nymphs, 5 days after infestation, vs untreated, read-out: effect in at least one of the two categories (mortality or growth inhibition)
Procedure: Euschistus heros (Neotropical Brown Stink Bug)
Soybean leaves on agar in 24-well microtiter plates were sprayed with aqueous test solutions prepared from 10′000 ppm DMSO stock solutions. After drying the leaves were infested with N2 nymphs. The samples were assessed for mortality and growth inhibition in comparison to untreated samples 5 days after infestation. The following compounds gave an effect of at least 80% in at least one of the two categories (mortality or growth inhibition) at an application rate of 200 ppm: 1, 2, 3, 7, 8, 9, 12, 13, 14, 15, 17, 18, 21, 25, 26, 27, 28 and 29.

SMILES: CN(C(=O)c1cc(-c2cn(-c3c(C(F)(F)F)c(C(F)(F)C(F)(F)F)nn3C)nn2)sc1C#N)C1CC1 [Compound 2, 2-cyano-N-cyclopropyl-N-methyl-5-[1-[2-methyl-5-(1,1,2,2,2-pentafluoroethyl)-4-(trifluoromethyl)pyrazol-3-yl]triazol-4-yl]thiophene-3-carboxamide]
percent control (mortality, anti-feedant effect or growth inhibition) at 200 ppm [1]: ≥ 80%
percent effect (mortality or growth inhibition) at 200 ppm [2]: ≥ 80%
percent effect (mortality or growth inhibition) at 200 ppm [3]: ≥ 80%
mortality at 200 ppm [4]: ≥ 80%
mortality at 200 ppm [5]: ≥ 80%
percent effect (mortality or growth inhibition) at 200 ppm [6]: ≥ 80%

SMILES: CCN(C(=O)c1cc(-c2cn(-c3c(C(F)(F)F)c(C(F)(F)C(F)(F)F)nn3C)nn2)sc1C#N)C1CC1 [Compound 3, 2-cyano-N-cyclopropyl-N-ethyl-5-[1-[2-methyl-5-(1,1,2,2,2-pentafluoroethyl)-4-(trifluoromethyl)pyrazol-3-yl]triazol-4-yl]thiophene-3-carboxamide]
percent control (mortality, anti-feedant effect or growth inhibition) at 200 ppm [1]: ≥ 80%
percent effect (mortality or growth inhibition) at 200 ppm [2]: ≥ 80%
percent effect (mortality or growth inhibition) at 200 ppm [3]: ≥ 80%
mortality at 200 ppm [4]: ≥ 80%
mortality at 200 ppm [5]: ≥ 80%
percent effect (mortality or growth inhibition) at 200 ppm [6]: ≥ 80%

melting point: 185 to 187 °C
SMILES: CN(C(=O)c1cc(-c2cn(-c3c(C(F)(F)F)c(C(F)(F)C(F)(F)F)nn3C)nn2)sc1C#N)C1(C#N)CC1 [Compound 5, 2-cyano-N-(1-cyanocyclopropyl)-N-methyl-5-[1-[2-methyl-5-(1,1,2,2,2-pentafluoroethyl)-4-(trifluoromethyl)pyrazol-3-yl]triazol-4-yl]thiophene-3-carboxamide]

melting point: 62 to 64 °C
SMILES: CCN(C(=O)c1cc(-c2cn(-c3c(C(F)(F)F)c(C(F)(F)C(F)(F)F)nn3C)nn2)sc1C#N)C1(C#N)CC1 [Compound 6, 2-cyano-N-(1-cyanocyclopropyl)-N-ethyl-5-[1-[2-methyl-5-(1,1,2,2,2-pentafluoroethyl)-4-(trifluoromethyl)pyrazol-3-yl]triazol-4-yl]thiophene-3-carboxamide]

SMILES: Cn1nc(C(F)(F)C(F)(F)F)c(C(F)(F)F)c1-n1cc(-c2cc(C(=O)NC3CC3)c(Cl)s2)nn1 [Compound 7, 2-chloro-N-cyclopropyl-5-[1-[2-methyl-5-(1,1,2,2,2-pentafluoroethyl)-4-(trifluoromethyl)pyrazol-3-yl]triazol-4-yl]thiophene-3-carboxamide]
percent control (mortality, anti-feedant effect or growth inhibition) at 200 ppm [1]: ≥ 80%
percent effect (mortality or growth inhibition) at 200 ppm [2]: ≥ 80%
percent effect (mortality or growth inhibition) at 200 ppm [3]: ≥ 80%
mortality at 200 ppm [4]: ≥ 80%
mortality at 200 ppm [5]: ≥ 80%
percent effect (mortality or growth inhibition) at 200 ppm [6]: ≥ 80%

SMILES: Cn1nc(C(F)(F)C(F)(F)F)c(C(F)(F)F)c1-c1cc(-c2cc(C(=O)NC3CC3)c(C#N)s2)on1 [Compound 13, 2-cyano-N-cyclopropyl-5-[3-[2-methyl-5-(1,1,2,2,2-pentafluoroethyl)-4-(trifluoromethyl)pyrazol-3-yl]isoxazol-5-yl]thiophene-3-carboxamide]
percent control (mortality, anti-feedant effect or growth inhibition) at 200 ppm [1]: ≥ 80%
percent effect (mortality or growth inhibition) at 200 ppm [2]: ≥ 80%
percent effect (mortality or growth inhibition) at 200 ppm [3]: ≥ 80%
mortality at 200 ppm [4]: ≥ 80%
mortality at 200 ppm [5]: ≥ 80%
percent effect (mortality or growth inhibition) at 200 ppm [6]: ≥ 80%

SMILES: CN(C(=O)c1cc(-c2cc(-c3c(C(F)(F)F)c(C(F)(F)C(F)(F)F)nn3C)no2)sc1C#N)C1CC1 [Compound 14, 2-cyano-N-cyclopropyl-N-methyl-5-[3-[2-methyl-5-(1,1,2,2,2-pentafluoroethyl)-4-(trifluoromethyl)pyrazol-3-yl]isoxazol-5-yl]thiophene-3-carboxamide]
percent control (mortality, anti-feedant effect or growth inhibition) at 200 ppm [1]: ≥ 80%
percent effect (mortality or growth inhibition) at 200 ppm [2]: ≥ 80%
percent effect (mortality or growth inhibition) at 200 ppm [3]: ≥ 80%
mortality at 200 ppm [4]: ≥ 80%
mortality at 200 ppm [5]: ≥ 80%
percent effect (mortality or growth inhibition) at 200 ppm [6]: ≥ 80%

SMILES: CCN(C(=O)c1cc(-c2cc(-c3c(C(F)(F)F)c(C(F)(F)C(F)(F)F)nn3C)no2)sc1C#N)C1CC1 [Compound 15, 2-cyano-N-cyclopropyl-N-ethyl-5-[3-[2-methyl-5-(1,1,2,2,2-pentafluoroethyl)-4-(trifluoromethyl)pyrazol-3-yl]isoxazol-5-yl]thiophene-3-carboxamide]
percent control (mortality, anti-feedant effect or growth inhibition) at 200 ppm [1]: ≥ 80%
percent effect (mortality or growth inhibition) at 200 ppm [2]: ≥ 80%
percent effect (mortality or growth inhibition) at 200 ppm [3]: ≥ 80%
mortality at 200 ppm [4]: ≥ 80%
mortality at 200 ppm [5]: ≥ 80%
percent effect (mortality or growth inhibition) at 200 ppm [6]: ≥ 80%

SMILES: CN(C(=O)c1cc(-c2cc(-c3c(C(F)(F)F)c(C(F)(F)C(F)(F)F)nn3C)no2)sc1C#N)C1(C#N)CC1 [Compound 17, 2-cyano-N-(1-cyanocyclopropyl)-N-methyl-5-[3-[2-methyl-5-(1,1,2,2,2-pentafluoroethyl)-4-(trifluoromethyl)pyrazol-3-yl]isoxazol-5-yl]thiophene-3-carboxamide]
percent control (mortality, anti-feedant effect or growth inhibition) at 200 ppm [1]: ≥ 80%
percent effect (mortality or growth inhibition) at 200 ppm [2]: ≥ 80%
percent effect (mortality or growth inhibition) at 200 ppm [3]: ≥ 80%
mortality at 200 ppm [4]: ≥ 80%
mortality at 200 ppm [5]: ≥ 80%
percent effect (mortality or growth inhibition) at 200 ppm [6]: ≥ 80%

SMILES: Cn1nc(C(F)(F)C(F)(F)F)c(C(F)(F)F)c1-c1csc(-c2cc(C(=O)NC3CC3)c(C#N)s2)c1 [Compound 27, 2-cyano-N-cyclopropyl-5-[4-[2-methyl-5-(1,1,2,2,2-pentafluoroethyl)-4-(trifluoromethyl)pyrazol-3-yl]-2-thienyl]thiophene-3-carboxamide]
percent control (mortality, anti-feedant effect or growth inhibition) at 200 ppm [1]: ≥ 80%
percent effect (mortality or growth inhibition) at 200 ppm [2]: ≥ 80%
percent effect (mortality or growth inhibition) at 200 ppm [3]: ≥ 80%
mortality at 200 ppm [4]: ≥ 80%
mortality at 200 ppm [5]: ≥ 80%
percent effect (mortality or growth inhibition) at 200 ppm [6]: ≥ 80%

SMILES: CN(C(=O)c1cc(-c2cc(-c3c(C(F)(F)F)c(C(F)(F)C(F)(F)F)nn3C)cs2)sc1C#N)C1CC1 [Compound 28, 2-cyano-N-cyclopropyl-N-methyl-5-[4-[2-methyl-5-(1,1,2,2,2-pentafluoroethyl)-4-(trifluoromethyl)pyrazol-3-yl]-2-thienyl]thiophene-3-carboxamide]
percent control (mortality, anti-feedant effect or growth inhibition) at 200 ppm [1]: ≥ 80%
percent effect (mortality or growth inhibition) at 200 ppm [2]: ≥ 80%
percent effect (mortality or growth inhibition) at 200 ppm [3]: ≥ 80%
mortality at 200 ppm [4]: ≥ 80%
mortality at 200 ppm [5]: ≥ 80%
percent effect (mortality or growth inhibition) at 200 ppm [6]: ≥ 80%

SMILES: CCN(C(=O)c1cc(-c2cc(-c3c(C(F)(F)F)c(C(F)(F)C(F)(F)F)nn3C)cs2)sc1C#N)C1CC1 [Compound 29, 2-cyano-N-cyclopropyl-N-ethyl-5-[4-[2-methyl-5-(1,1,2,2,2-pentafluoroethyl)-4-(trifluoromethyl)pyrazol-3-yl]-2-thienyl]thiophene-3-carboxamide]
percent control (mortality, anti-feedant effect or growth inhibition) at 200 ppm [1]: ≥ 80%
percent effect (mortality or growth inhibition) at 200 ppm [2]: ≥ 80%
percent effect (mortality or growth inhibition) at 200 ppm [3]: ≥ 80%
mortality at 200 ppm [4]: ≥ 80%
mortality at 200 ppm [5]: ≥ 80%
percent effect (mortality or growth inhibition) at 200 ppm [6]: ≥ 80%

From patent US11040962B2, “Pesticidally active pyrazole derivatives” (SYNGENTA PARTICIPATIONS AG, priority 2017, dated 2021)
